Tests used:
Mus musculus [1] = assay: Anti-inflammatory activity against ovalbumin induced Balb/c mouse bronchoalveolar lavage assessed as reduction in eosinophil infiltration administered twice daily for 3 days by microscopic analysis; assay type: functional, organism-based; conditions: dose 5-25 mg/kg, route sc, time 3.0 day
Mus musculus [2] = assay: In vivo inhibition of IL-2 production in Balb/c mouse serum administered for 15 mins in presence of anti-CD3 antibody by ELISA analysis; assay type: functional, organism-based; conditions: dose 50-100 mg/kg, route sc
[3] = target: Tyrosine-protein kinase ITK/TSK (Mus musculus) (UniProt Q03526); assay: (§1) Inhibition of Itk in mouse EL4 cells assessed as inhibition of IL-2 secretion incubated for 16 hrs in presence of anti-CD3 antibody G19-4 by ELISA analysis; assay type: cell-based
[4] = target: Tyrosine-protein kinase ITK/TSK (Mus musculus, UniProt Q03526); assay: as §1; assay type: cell-based
[5] = target: T1, Tyrosine-protein kinase ITK/TSK (Homo sapiens) (UniProt Q08881); assay: Inhibition of Itk in human PBMC cells assessed as inhibition of IL-2 secretion incubated for 16 hrs in presence of anti-CD3 antibody G19-4 by ELISA analysis; assay type: cell-based
T1 sequence (whole entry): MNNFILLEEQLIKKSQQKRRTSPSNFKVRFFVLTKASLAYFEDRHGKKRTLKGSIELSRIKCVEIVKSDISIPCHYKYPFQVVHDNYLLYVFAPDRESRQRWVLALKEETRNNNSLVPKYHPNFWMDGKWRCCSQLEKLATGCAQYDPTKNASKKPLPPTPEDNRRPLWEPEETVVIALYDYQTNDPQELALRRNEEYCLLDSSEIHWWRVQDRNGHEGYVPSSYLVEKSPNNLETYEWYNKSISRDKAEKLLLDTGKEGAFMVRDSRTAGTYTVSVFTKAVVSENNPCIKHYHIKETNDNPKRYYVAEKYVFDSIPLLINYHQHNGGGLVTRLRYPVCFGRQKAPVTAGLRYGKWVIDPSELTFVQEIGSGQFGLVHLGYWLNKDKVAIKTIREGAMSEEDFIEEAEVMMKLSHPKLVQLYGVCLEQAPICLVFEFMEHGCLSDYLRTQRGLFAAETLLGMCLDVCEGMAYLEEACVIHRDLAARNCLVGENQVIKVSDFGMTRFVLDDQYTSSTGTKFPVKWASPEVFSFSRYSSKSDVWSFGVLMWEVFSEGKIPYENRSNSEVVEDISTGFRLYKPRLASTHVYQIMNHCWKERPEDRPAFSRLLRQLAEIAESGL

Sequence of Tyrosine-protein kinase ITK/TSK (Mus musculus) (Q03526 whole entry): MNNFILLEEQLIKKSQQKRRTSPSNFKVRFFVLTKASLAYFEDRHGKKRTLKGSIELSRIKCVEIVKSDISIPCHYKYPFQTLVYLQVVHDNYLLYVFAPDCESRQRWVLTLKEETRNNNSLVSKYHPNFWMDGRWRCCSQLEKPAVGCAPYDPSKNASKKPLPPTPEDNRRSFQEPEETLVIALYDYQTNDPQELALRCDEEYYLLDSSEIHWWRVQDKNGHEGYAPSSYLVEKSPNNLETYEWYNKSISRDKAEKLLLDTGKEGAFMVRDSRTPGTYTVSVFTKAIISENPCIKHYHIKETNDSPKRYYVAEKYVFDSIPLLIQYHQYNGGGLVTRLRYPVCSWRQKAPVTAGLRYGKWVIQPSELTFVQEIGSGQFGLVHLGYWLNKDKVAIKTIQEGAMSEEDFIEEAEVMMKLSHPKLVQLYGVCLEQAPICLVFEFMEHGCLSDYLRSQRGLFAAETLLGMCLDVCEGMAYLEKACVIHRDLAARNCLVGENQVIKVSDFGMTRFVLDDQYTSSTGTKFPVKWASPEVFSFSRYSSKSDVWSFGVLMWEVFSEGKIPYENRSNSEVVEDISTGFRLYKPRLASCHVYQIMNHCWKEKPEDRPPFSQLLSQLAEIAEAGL
Sequence of Tyrosine-protein kinase ITK/TSK (Q03526 whole entry): as above

| inhibition [3] | IC50 [4] [nM] | inhibition [5] | Structure (SMILES) | Activity (Mus musculus [1]) | inhibition (Mus musculus [2]) |
| --- | --- | --- | --- | --- | --- |
| – | – | – | COc1cc(C)c(Sc2cnc(NC(=O)c3ccc(CNC(C)C(C)(C)C)cc3)s2)cc1C(=O)N1CCN(C(C)=O)CC1 (stereo not given) | Dose-Dependent Effect | – |
| Dose-Dependent Effect | 250 | Dose-Dependent Effect | CC(=O)N1CCN(C(=O)c2cc(CSc3cnc(NC(=O)c4ccc(CNC(C)C(C)(C)C)cc4)s3)cc(C)c2C)CC1 (stereo not given) | – | Dose-Dependent Effect |

Reference: ChEMBL document CHEMBL5715936, “Selective Itk inhibitors block T-cell activation and murine lung inflammation” (Biochemistry, 2004)
